Results on 1 molecule are retold here after patent US20070010484A1, “Method for treating or inhibiting the effects of injuries or diseases that result in neuronal degeneration and method for promoting neurogenesis” (YEDA RESEARCH AND DEVELOPMENT CO. LTD., priority 2003, published 2007).

One assay has as its system IFN-γ. The assay can be described thus: IFN-γ secretion by anti-CD3-activated T cells, ELISA. It is filed as cell-based, human. Conditions: 2 h pretreatment, then anti-CD3 activation 24 h. As for the experimental part: Assay of IFN-γ secretion. Human T cells were purified and maintained in culture (RPMI containing 10% FCS, 1% pyruvate, 1% glutamine, 1% antibiotics, in a humidified atmosphere of 7% CO2in air), and the cells were activated for 2 h with the indicated concentrations of CSPG-DS. In order to stimulate the cells to secrete cytokines, they were replated (1×10^6 cells in 0.5 ml culture medium per well) in 24-well plates precoated with 1 μg/ml immobilized anti-CD3 mAb (non-tissue-culture grade). After 24 h the supernatants were collected and their IFN-γ contents determined by ELISA, using anti-IFN-γ mAb (Pharmingen, San Diego, Calif.) according to the manufacturer's instructions.

A further assay has as its system human T cells. As to the kind of experiment: T-cell adhesion to fibronectin in presence of SDF-1α. Conditions: 2 h pretreatment prior to SDF-1α, FN-coated plates, relative to untreated T cells. It is filed as cell-based. As to the method:
Human T cells. T cells from the peripheral blood of healthy donors were isolated by negative selection using a RosetteSep™ antibody cocktail containing mabs against CD16, CD19, CD36, and CD56 (StemCell Technologies, Vancouver, BC). After incubation with the cocktail for 20 min at room temperature, blood samples were diluted in PBS with 2% fetal bovine serum, loaded on a Ficoll column (ICN Biomedical, Aurora, Ohio), and centrifuged at 1200× g for 20 min at room temperature. The cells were removed from the Ficoll column, washed, and cultured in RPMI containing antibiotics and 10% heat-inactivated FCS. T-cell adhesion assays. Adhesion of T cells to FN was assayed as described (Ariel et al., 1998). Briefly, flat-bottomed microtiter well plates were precoated with CSPG or FN (10 μg/ml) and the remaining binding sites were blocked with 1% BSA. […]-labeled T cells were resuspended in RPMI medium supplemented with 1% HEPES buffer and 0.1% BSA (adhesion medium). After preincubation 2 h with CSPG-DS at the indicated concentrations, the T cells were incubated (30 min, 37° C., humidified atmosphere of 7% CO2 in air) with SDF-1α and then added to the wells. […] Adherent cells were lysed with lysis buffer (1 M NaOH, 0.1% Triton X-100 in H2O), removed, and counted with a γ-counter (Packard, Downers Grove, Ill.).

SMILES strings stand for the structures.

Take `CC(=O)N[C@H]1C(O)O[C@H](COS(=O)(=O)O)[C@H](O)[C@@H]1O[C@@H]1OC(C(=O)O)=C[C@H](O)[C@H]1O` (stereo partly drawn) [CSPG-DS, 2-acetoamido-2-deoxy-3-O-(β-D-gluco-4-enepyranosyluronic acid)-6-O-sulfo-D-galactose]: the “secretion of IFN-γ” value in the assay on IFN-γ is “significant reduction”. Also, the T-cell adhesion result in the assay with human T cells is “significantly reduced”.
